Marks after values point to notes of the source that are not given here.
Test system: Meloidogyne incognita nematodes
Assay: Miniaturized greenhouse nematicidal efficacy assay (cucumber seedlings in sand, root gall rating)
[1] = 0.5 ppm, test b, average of triplicate gall ratings (scale 0-3, % root mass galled)
[2] = 1 ppm, test b, average of triplicate gall ratings (scale 0-3, % root mass galled)
[3] = 8 ppm, test b, average of triplicate gall ratings (scale 0-3, % root mass galled)
[4] = 0.5 ppm, test a, average of triplicate gall ratings (scale 0-3, % root mass galled)
[5] = 1 ppm, test a, average of triplicate gall ratings (scale 0-3, % root mass galled)
[6] = 8 ppm, test a, average of triplicate gall ratings (0=0-5%, 1=6-20%, 2=21-50%, 3=51-100% root mass galled), harvest 10 to 12 days after inoculation

Compound | 8/1/0.5 ppm gall ratings* [1] | 8/1/0.5 ppm gall ratings* [2] | 8/1/0.5 ppm gall ratings* [3] | 8/1/0.5 ppm gall ratings* [4] | 8/1/0.5 ppm gall ratings* [5] | 8/1/0.5 ppm gall ratings* [6]
Clc1cccc(C2NC(c3cccs3)=NO2)c1 (stereo not shown) [IIa-ii, 5-(3-chlorophenyl)-3-(thiophen-2-yl)-4,5-dihydro-1,2,4-oxadiazole] | 3.00 | 2.33 | 0.33 |  |  | 
Cc1cc(Cl)ccc1C1NC(c2ccco2)=NO1 (stereo not shown) [IIa-iii, 5-(4-chloro-2-methylphenyl)-3-(furan-2-yl)-4,5-dihydro-1,2,4-oxadiazole] | 2.33 | 1.67 | 0.00 |  |  | 
c1ccc(C2=NOC(c3cccs3)N2)cc1 (stereo not shown) [Ia-i, 3-phenyl-5-(thiophen-2-yl)-4,5-dihydro-1,2,4-oxadiazole] | 2.67 | 1.67 | 0.00 | 2.33 | 1.33 | 0.00
c1ccc(C2=NOC(c3ccco3)N2)cc1 (stereo not shown) [Ia-ii, 5-(furan-2-yl)-3-phenyl-4,5-dihydro-1,2,4-oxadiazole] | 2.33 | 0.67 | 0.00 | 2.67 | 2.00 | 0.00
Clc1ccc(C2=NOC(c3ccco3)N2)cc1 (stereo not shown) [Ia-iii, 3-(4-chlorophenyl)-5-(furan-2-yl)-4,5-dihydro-1,2,4-oxadiazole] | 3.00 | 1.67 | 0.00 |  |  | 
Cc1cc(Cl)ccc1C1=NOC(c2ccco2)N1 (stereo not shown) [Ia-iv, 3-(4-chloro-2-methylphenyl)-5-(furan-2-yl)-4,5-dihydro-1,2,4-oxadiazole] | 2.67 | 1.67 | 0.00 |  |  | 
Clc1ccc(C2=NOC(c3ccco3)N2)c(Cl)c1 (stereo not shown) [Ia-ix, 3-(2,4-dichlorophenyl)-5-(furan-2-yl)-4,5-dihydro-1,2,4-oxadiazole] | 3.00 | 2.33 | 0.00 |  |  | 
Fc1ccc(C2=NOC(c3cccs3)N2)cc1 (stereo not shown) [Ia-v, 3-(4-fluorophenyl)-5-(thiophen-2-yl)-4,5-dihydro-1,2,4-oxadiazole] | 1.67 | 0.00 | 0.00 |  |  | 
Clc1ccc(C2=NOC(c3ccoc3)N2)cc1 (stereo not shown) [Ib-iv, 3-(4-chlorophenyl)-5-(furan-3-yl)-4,5-dihydro-1,2,4-oxadiazole] | 2.67 | 1.33 | 0.00 |  |  | 
Abamectin [reference compound] |  |  |  |  | 1.67^a | 

— US9232800B2
